Three compounds from paper PMC3314626, “Crystal Structures of the Tetratricopeptide Repeat Domains of Kinesin Light Chains: Insight into Cargo Recognition Mechanisms” (PLoS ONE, 2012) can be followed below.

The target of assay [1] is T1, KLC1-TPR (Homo sapiens, UniProt Q07866).
T1 construct: KLC1-TPR (residues 228–495, genbank: NP_005543); made in house; host or cells: E. coli BL21(DE3)-CodonPlus-RIL
In words: ITC binding of cytosolic domain of ALC1 protein to KLC1-TPR. Here is the method:
(§1) DNAs encoding the TPR domains of KLC1-TPR (residues 228–495, genbank: NP_005543) and KLC2-TPR (residues 217–480, genbank: NP_073733) were amplified by polymerase chain reaction (PCR) using cDNAs obtained from the Mammalian Gene Collection as templates. The PCR products were cloned into a modified version of the expression plasmid pET28-LIC (genbank: EF442785) using an Infusion cloning kit (ClonTech). The KLC1-N343S and KLC2-S328N mutants were prepared with a QuickChange® kit (Stratagene).
(§2) Binding affinities of the JIP1 peptide (Ac-EYTCPTEDIYLE-COOH), ALC1peptide (Ac-EMDWDDSALT-COOH) (synthesized by Tufts University Core Facility), and ALC1 protein to the KLC1-TPR, KLC2-TPR and their mutants were measured by isothermal titration calorimetry (ITC) (VP-ITC microcalorimeter, MicroCal Inc.). Measurements were performed at 25°C by injecting 5–10 µl of peptide solution (1–3 mM) into a sample chamber containing 60–130 µM KLC1-TPR or KLC2-TPR in 20 mM Bis-Tris, pH 6.5, 500 mM sodium chloride, and 0.5 mM TCEP. For the protein-protein interaction, the sample chamber contained 15 µM of KLC1-TPR and 160 µM of the ALC1 protein in a buffer containing 30 mM HEPES 7.4, 200 mM NaCl, 0.5 mM TCEP. The syringe injections containing peptides and proteins were dissolved and dialyzed in the same buffer as the KLC proteins prior to the experiments. A total of 25 injections were performed with an interval of 300 seconds and a reference power of 13 µcal/second. The heat of dilution was controlled with binding isotherms from reference injections containing the peptide alone prior to fitting of the data. ITC data were analyzed using Origin software (MicroCal Inc) and were fit using a one-site binding model.
In order to elucidate a comprehensive view of ALC1 binding to KLC isoforms, the cytosolic domain of ALC1 was purified for the ITC binding studies. […] This would cause the modest increase in binding affinity to KLC1-TPR, compared to the ALC1 peptide. […]

In another assay the target is T2, KLC1-N301A (Homo sapiens, UniProt Q07866, N301A).
T2 construct: KLC1-TPR (residues 228–495, genbank: NP_005543); made in house; host or cells: E. coli BL21(DE3)-CodonPlus-RIL
T2 sequence (Q07866 228-495 N301A): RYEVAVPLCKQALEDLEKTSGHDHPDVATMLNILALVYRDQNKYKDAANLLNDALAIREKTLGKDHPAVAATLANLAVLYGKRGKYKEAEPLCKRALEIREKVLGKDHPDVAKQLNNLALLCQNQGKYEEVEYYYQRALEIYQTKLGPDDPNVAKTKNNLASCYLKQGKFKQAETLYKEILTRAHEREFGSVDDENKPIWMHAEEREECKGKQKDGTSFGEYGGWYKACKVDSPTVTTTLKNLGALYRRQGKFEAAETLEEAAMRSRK
Nature of the assay: ITC binding of ALC1 peptide to KLC1-N301A mutant. Conditions: 25°C. The method, then: as §2
Tryptophans at position 903 and 973 of ALC1 are crucial in binding to KLC1 as their mutation to alanines disrupt the interaction. There are two negatively charged aspartic acids and a polar serine residue adjacent to the tryptophans. Due to the similarities of the ALC1 residues to those of JIP1, the recognition of ALC1 by KLC1-TPR could also involve a “clamping” feature. However, such clamp must be different from the JIP1 binding polar patch as N343 is not required for ALC1 binding. Also, residues lining the ALC1 binding clamp should be conserved between KLC1-TPR and KLC2-TPR as ALC1 can interact with both isoforms. Possible candidates are N301 and N344 residues in the inner helices of TPR3 and TPR4 of KLC1-TPR. N301 extends toward the neighboring helix and interacts with N344, and is adjacent to K340 and Q341. As these residues are conserved in KLC2-TPR, N301 of KLC1-TPR was mutated into an alanine (KLC1-N301A) and tested its binding behavior towards ALC1 peptide. […] Together, N301 of KLC1-TPR plays an important role in binding of ALC1, probably by forming one of the ALC1 binding clamps.

For assay [2], the target named is T1, KLC1-TPR. Nature of the assay: ITC binding of JIP1 or ALC1 peptide to KLC1-TPR. Particulars: 25°C; for Kd / ΔH: 20 mM Bis-Tris pH 6.5, 500 mM NaCl, 0.5 mM TCEP; for Kd: Kd determined from Ka of one-site fit, Table 3; for Kd / N (binding stoichiometry) / ΔH: ± SD from fit; for ΔS / N (binding stoichiometry): pH 6.5, 500 mM NaCl; for ΔS / N (binding stoichiometry) / ΔH: one-site model; for ΔH: peptide 1–3 mM injected into 60–130 µM KLC1-TPR. The method, then: as §1, §2

The target of another assay is T3, KLC1-N343S (Homo sapiens, UniProt Q07866, N343S).
T3 construct: KLC1-TPR (residues 228–495, genbank: NP_005543); made in house; host or cells: E. coli BL21(DE3)-CodonPlus-RIL
T3 sequence (Q07866 228-495 N343S): as the sequence (Q07866 228-495 N301A) above, with A74N, N116S counted along it
Nature of the assay: ITC binding of JIP1 or ALC1 peptide to KLC1-N343S mutant. Conditions: 25°C; for ΔS / N (binding stoichiometry) / Kd / ΔH: one-site model, N.B = no binding was observed; for N (binding stoichiometry) / Kd / ΔH: ± SD from fit; for ΔH: peptide 1–3 mM into chamber, 20 mM Bis-Tris pH 6.5, 500 mM NaCl, 0.5 mM TCEP. Here is the method: as §1, §2

The target in another assay is T4, KLC2-TPR (Homo sapiens, UniProt Q9H0B6).
T4 construct: KLC2-TPR (residues 217–480, genbank: NP_073733); made in house; host or cells: E. coli BL21(DE3)-CodonPlus-RIL
T4 sequence (Q9H0B6 217-480): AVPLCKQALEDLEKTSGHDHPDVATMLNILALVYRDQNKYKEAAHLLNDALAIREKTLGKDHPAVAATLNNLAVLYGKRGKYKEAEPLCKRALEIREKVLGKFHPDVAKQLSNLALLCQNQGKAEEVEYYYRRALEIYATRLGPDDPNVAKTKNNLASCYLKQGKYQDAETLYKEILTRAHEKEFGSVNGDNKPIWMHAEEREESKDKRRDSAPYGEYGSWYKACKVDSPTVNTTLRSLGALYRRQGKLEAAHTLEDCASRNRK
Nature of the assay: ITC binding of JIP1 peptide to KLC2-TPR. Conditions: 25°C. The method, then:
as §1, §2

For the next assay, the target named is T5, KLC2-S328N (Homo sapiens, UniProt Q9H0B6, S328N).
T5 construct: KLC2-TPR (residues 217–480, genbank: NP_073733); made in house; host or cells: E. coli BL21(DE3)-CodonPlus-RIL
T5 sequence (Q9H0B6 217-480 S328N): as the sequence (Q9H0B6 217-480) above, with S112N counted along it
Nature of the assay: ITC binding of JIP1 peptide to KLC2-S328N mutant. Conditions: 25°C. The method, then: as §1, §2

Where [3] appears, read: pH 6.5, 500 mM NaCl, one-site model.
Where [4] appears, read: pH 6.5, 500 mM NaCl, one-site model, ± SD from fit.
Where [5] appears, read: peptide 1–3 mM into chamber, 20 mM Bis-Tris pH 6.5, 500 mM NaCl, 0.5 mM TCEP, one-site model, ± SD from fit.
Setting [6] is: pH 6.5, 500 mM NaCl, N.B = no binding was observed.

Entries after “also recorded” stand apart in the source; their conditions may differ. Where two headings read alike, the source gives them in different places.

T1 sequence (Q07866 228-495): as the sequence (Q07866 228-495 N301A) above, with A74N counted along it

Broadly, the Kd is the concentration at which binding is half-saturated. Compound “cytosolic domain of ALC1: purified cytosolic domain of ALC1, containing two KLC1-binding motifs (residues 893–896 and 964–967)” showed a Kd in the assay with KLC1-TPR [1] (25°C, 15 µM KLC1-TPR, 160 µM ALC1 protein, 30 mM HEPES 7.4, 200 mM NaCl, 0.5 mM TCEP, one-site model) of 2.4 µM. In the assay with KLC1-TPR [1] (25°C, 30 mM HEPES 7.4, 200 mM NaCl, 0.5 mM TCEP, one-site model), this compound displayed a binding stoichiometry of 0.85. In the assay with KLC1-TPR [1] (KLC1-TPR), the “affinity compared with the ALC1 peptide (in words)” value is “higher affinity than the ALC1 peptide”.

“Ac-EMDWDDSALT-OH [ALC1 peptide, Ac-EMDWDDSALT-COOH]”: the “affinity compared with wild type KLC1 (in words)” value at KLC1-N301A (pH 6.5, 500 mM NaCl) is reported as “lower affinity than the wild type KLC1”. Also, the ΔS came out at 12.9 eu on KLC1-N301A (setting [3]); 11.4 eu on KLC1-TPR [2]; 14.1 eu on KLC1-N343S (pH 6.5, 500 mM NaCl). Besides, the “N (binding stoichiometry)” value was found to be 1.02 at KLC1-N301A (setting [4]); 1.02±0.69 at KLC1-N301A (pH 6.5, 500 mM NaCl, one-site model, ± SD from fit, listed as ALC1); 1.85 on KLC1-TPR [2]; 1.85±0.04 on KLC1-TPR [2] (listed as ALC1); 2.13 at KLC1-N343S (pH 6.5, 500 mM NaCl); 2.13±0.15 at KLC1-N343S (pH 6.5, 500 mM NaCl, listed as ALC1). Further, the Kd at KLC1-N301A (pH 6.5, 500 mM NaCl, one-site model, ± SD from fit, Table 3) amounted to 179 ± 127 µM; at KLC1-TPR [2], 50.3 ± 3.1 µM; at KLC1-N343S (pH 6.5, 500 mM NaCl, Table 3, read-out: Kd), 44.3 ± 7.5 µM. In addition, the ΔH at KLC1-N301A (setting [5]) was -1.2 ± 0.99 kcal/mol; on KLC1-TPR [2], -2.5 ± 0.07 kcal/mol; at KLC1-N343S, -1.7 ± 0.16 kcal/mol.

With `CC[C@H](C)[C@H](NC(=O)[C@H](CC(=O)O)NC(=O)[C@H](CCC(=O)O)NC(=O)[C@@H](NC(=O)[C@@H]1CCCN1C(=O)[C@H](CS)NC(=O)[C@@H](NC(=O)[C@H](Cc1ccc(O)cc1)NC(=O)[C@H](CCC(=O)O)NC(C)=O)[C@@H](C)O)[C@@H](C)O)C(=O)N[C@@H](Cc1ccc(O)cc1)C(=O)N[C@@H](CC(C)C)C(=O)N[C@@H](CCC(=O)O)C(=O)O` [JIP1 peptide, Ac-EYTCPTEDIYLE-COOH], at KLC2-TPR (pH 6.5, 500 mM NaCl), the “interaction with KLC2-TPR (in words)” value is on record as “no interaction was detected; also recorded: not to KLC2-TPR”. In addition, the Kd result on KLC2-TPR (setting [6]) is “N.B”; at KLC1-TPR [2], 9.4 ± 5.85 µM; on KLC1-N343S (pH 6.5, 500 mM NaCl, Table 3) it was “N.B”. In addition, the “N (binding stoichiometry)” value is “N.B” at KLC2-TPR (setting [6]); 1.18±0.01 at KLC2-S328N (setting [4]); 1.02±0.1 on KLC1-TPR [2]; “N.B” at KLC1-N343S (pH 6.5, 500 mM NaCl). The ΔS result on KLC2-TPR (setting [6]) is “N.B”; on KLC2-S328N (setting [3]) it was −31.8 eu; on KLC1-TPR [2] it was 17.9 eu; on KLC1-N343S (pH 6.5, 500 mM NaCl), “N.B”. The ΔH entry at KLC2-TPR (peptide 1–3 mM into 60–130 µM KLC2-TPR, 20 mM Bis-Tris pH 6.5, 500 mM NaCl, 0.5 mM TCEP, N.B = no binding was observed) is “N.B”; at KLC2-S328N (setting [5]), -15.9 ± 1.6 kcal/mol; on KLC1-TPR [2], -1.52 ± 0.182 kcal/mol; on KLC1-N343S it was “N.B”. Also, the “ability to bind (in words)” value at KLC2-S328N (pH 6.5, 500 mM NaCl) is “gained binding capacity”; at KLC1-N343S (pH 6.5, 500 mM NaCl) it was “lost the ability to bind”. Further, the “interaction with KLC1-TPR (in words)” value on KLC1-TPR [2] (pH 6.5, Figure S3A) is “specifically binds to KLC1-TPR”.
